The results in this text go back to patent US11661427B2, “Tetrazole derivatives as TRPA1 inhibitors” (Boehringer Ingelheim International GmbH, priority 2020, dated 2023).

A value given as a limit tells only on which side of the number the result lay.

For one series, the target named is human TRPA1 ion channel (Homo sapiens (Human), UniProt O75762). Put plainly: Assay A: TRPA1 assay (FLIPR calcium assay, AITC agonism, HEK293 cells over-expressing human TRPA1). Conditions: AITC 10 μM, FLIPRtetra, AUC after AITC addition, read-out: hTRPA1 IC50. Type of series: cell-based. The method, then:
A human HEK293 cell line over-expressing the human TRPA1 ion channel (Perkin Elmer, Product No. AX-004-PCL) is used as a test system for compound efficacy and potency. Compound activity is determined by measuring the effect of compounds on intracellular calcium concentration induced by AITC (Allylisothiocyanat) agonism in a FLIPRtetra system (Molecular Devices).
Cells are grown in culture medium (MEM/EBSS medium with 10% FCS and 0.4 mg/ML Geneticin). […] For sub-culturing cells are detached from flasks by Versene. At the day before the assay, cells are detached, washed twice with medium (MEM/EBSS medium with 10% FCS) and 20000 cells in 20 μl/well are seeded to Poly D-Lysin biocoated 384-well plates (black, clear bottom, Cat. 356697) from Corning. Plates are incubated for 24 hours at 37° C./5% CO2 before use in the assay.
The test compounds are dissolved in 100% DMSO at a concentration of 10 mM and in a first step diluted in DMSO to a concentration of 5 mM, followed by serial dilution steps in 100% DMSO. Dilution factor and number of dilution steps may vary according to needs. Typically 8 different concentrations by 1:5 dilutions are prepared, further intermediate dilutions (1:20) of the substances are carried out with HBSS/HEPES buffer (1×HEPES, Cat. 14065 from Gibco, 20 mM HEPES, Cat. 83264 from SIGMA, 0.1% BSA Cat. 11926 from Invitrogen, pH 7.4
At the assay day cells are washed 3× with assay puffer, 20 μL buffer remaining in the wells after washing. 10 μL Ca6 kit (Cat. R8191 MolecularDevices) loading buffer in HBSS/HEPES is added to the cells and the plates are incubated with lid for 120 minutes at 37°/5% CO2. 10 μL of compound or controls in HBSS/HEPES buffer/5% DMSO from the intermediate dilution plate are carefully added to the wells. […] Finally 10 μL of the agonist AITC 50 μM dissolved in HBSS/HEPES buffer/0.05% DMSO (final concentration 10 μM) is added to the wells followed by an additional read on the FLIPRtetra device for 10 minutes. The area under the signal curve (AUC) after AITC addition is used for IC50/% inhibition calculations
Each assay microtiter plate contains wells with vehicle (1% DMSO) controls instead of compound as controls for AITC induced luminescence (100% CTL; high controls) and wells with vehicle controls without AITC as controls for non-specific changes in luminescence (0% CTL; low controls).
The analysis of the data is performed by the calculation of the area under signal curve of the individual wells. Based on this values the % value for the measurement of each substance concentration is calculated (AUC(sample)−AUC(low))*100/(AUC(high)−AUC(low)) using MegaLab software (in house development). The IC50 values are calculated from the % control values using MegaLab software. Calculation: [y=(a−d)/(1+(x/c)^B)+d], a=low value, d=high value; x=conc M; c=IC50 M; b=hill; y=% ctrl

Series [1] is described as follows: Assay B: Microsomal clearance. Type of series: in vitro ADME. As to conditions: pooled liver microsomes, 1 μM test compound, 37° C.; Tables 5 and 6 of the same assay are headed human LM [% Qh]. The method, then:
Evaluation of Microsomal Clearance Assay B: Microsomal Clearance:
The metabolic degradation of the test compound is assayed at 37° C. with pooled liver microsomes. The final incubation volume of 100 μl per time point contains TRIS buffer pH 7.6 at RT (0.1 M), magnesium chloride (5 mM), microsomal protein (1 mg/ml) and the test compound at a final concentration of 1 μM.
Following a short preincubation period at 37° C., the reactions are initiated by addition of beta-nicotinamide adenine dinucleotide phosphate, reduced form (NADPH, 1 mM) and terminated by transferring an aliquot into solvent after different time points (0, 5, 15, 30, 60 min). Additionally, the NADPH-independent degradation is monitored in incubations without NADPH, terminated at the last time point. The [%] remaining test compound after NADPH independent incubation is reflected by the parameter c(control) (metabolic stability). The quenched incubations are pelleted by centrifugation (10000 g, 5 min).
An aliquot of the supernatant is assayed by LC-MS/MS for the amount of parent compound. The half-life (t1/2 INVITRO) is determined by the slope of the semilogarithmic plot of the concentration-time profile.

A short description of series [2]: Assay C: Hepatocyte clearance. Type of series: in vitro ADME, human. As to conditions: hepatocyte suspension, 5% species serum, 1 μM test compound, six hours. The method, then:
Evaluation of Hepatocyte Clearance Assay C: Hepatocyte Clearance
The metabolic degradation of the test compound is assayed in a hepatocyte suspension. Hepatocytes (cryopreserved) are incubated in Dulbecco's modified eagle medium (supplemented with 3.5 μg glucagon/500 mL, 2.5 mg insulin/500 mL and 3.75 mg/500 mL hydrocortison) containing 5% species serum.
Following a 30 min preincubation in an incubator (37° C., 10% CO2) 5 μl of test compound solution (80 μM; from 2 mM in DMSO stock solution diluted 1:25 with medium) are added into 395 μl hepatocyte suspension (cell density in the range 0.25-5 Mio cells/mL depending on the species, typically 1 Mio cells/mL; final concentration of test compound 1 μM, final DMSO concentration 0.05%).
The cells are incubated for six hours (incubator, orbital shaker) and samples (25 μl) are taken at 0, 0.5, 1, 2, 4 and 6 hours. Samples are transferred into acetonitrile and pelleted by centrifugation (5 min). The supernatant is transferred to a new 96-deepwell plate, evaporated under nitrogen and resuspended.
Decline of parent compound is analyzed by HPLC-MS/MS
CLint is calculated as follows CL_[…]=Dose/AUC=(C0/CD)/(AUD+clast/k)×1000/60. C0: initial concentration in the incubation [μM], CD: cell density of vital cells [10e6 cells/mL], AUD: area under the data [μM×h], clast: concentration of last data point [μM], k: slope of the regression line for parent decline [h−1].
The calculated in vitro hepatic intrinsic clearance can be scaled up to the intrinsic in vivo hepatic Clearance and used to predict hepatic in vivo blood clearance (CL) by the use of a liver model (well stirred model).

Sequence of human TRPA1 ion channel (O75762 whole entry): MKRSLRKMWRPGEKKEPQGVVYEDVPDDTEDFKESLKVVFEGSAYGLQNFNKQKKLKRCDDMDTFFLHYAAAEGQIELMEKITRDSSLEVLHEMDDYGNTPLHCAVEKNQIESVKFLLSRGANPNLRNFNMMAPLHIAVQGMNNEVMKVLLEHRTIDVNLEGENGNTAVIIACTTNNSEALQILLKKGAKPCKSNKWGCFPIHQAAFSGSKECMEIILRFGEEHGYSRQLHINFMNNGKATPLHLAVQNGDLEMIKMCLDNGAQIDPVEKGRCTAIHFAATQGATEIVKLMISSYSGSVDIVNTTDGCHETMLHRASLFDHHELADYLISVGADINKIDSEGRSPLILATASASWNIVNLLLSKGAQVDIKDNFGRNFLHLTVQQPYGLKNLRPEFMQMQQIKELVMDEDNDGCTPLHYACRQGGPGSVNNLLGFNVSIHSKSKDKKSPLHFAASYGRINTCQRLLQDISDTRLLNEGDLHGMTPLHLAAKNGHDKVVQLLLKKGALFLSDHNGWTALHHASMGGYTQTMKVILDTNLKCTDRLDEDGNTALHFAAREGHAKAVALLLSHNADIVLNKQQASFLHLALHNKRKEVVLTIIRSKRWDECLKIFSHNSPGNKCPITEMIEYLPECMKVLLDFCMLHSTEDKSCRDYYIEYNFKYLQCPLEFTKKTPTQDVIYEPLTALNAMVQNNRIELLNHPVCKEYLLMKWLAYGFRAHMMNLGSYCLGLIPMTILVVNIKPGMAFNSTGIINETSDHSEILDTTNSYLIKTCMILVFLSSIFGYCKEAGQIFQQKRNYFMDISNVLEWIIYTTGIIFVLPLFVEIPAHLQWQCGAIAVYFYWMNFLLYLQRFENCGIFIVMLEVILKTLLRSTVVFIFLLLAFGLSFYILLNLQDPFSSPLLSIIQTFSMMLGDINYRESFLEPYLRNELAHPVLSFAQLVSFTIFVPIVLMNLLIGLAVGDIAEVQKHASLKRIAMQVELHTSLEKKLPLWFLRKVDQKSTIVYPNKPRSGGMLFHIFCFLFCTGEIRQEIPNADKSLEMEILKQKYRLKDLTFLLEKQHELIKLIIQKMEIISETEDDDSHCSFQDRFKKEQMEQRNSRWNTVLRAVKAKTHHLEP

On to `Cc1ccc([C@@H](O)Cn2nnc(Cn3cnc4oc(C)c(C(N)=O)c4c3=O)n2)cc1` [Example 1, 3-({2-[(2R)-2-hydroxy-2-(4-methylphenyl)ethyl]-2H-1,2,3,4-tetrazol-5-yl}methyl)-6-methyl-4-oxo-3H,4H-furo[2,3-d]pyrimidine-5-carboxamide], for which the IC50 (usually the concentration at which inhibition is half-maximal) on human TRPA1 ion channel came out at 24 nM. Further, the Assay B result (column head not printed in Table 4) in series [1] was < 23%. Further, in series [2], the “human Hepatocytes” value was determined as 4 % Qh.
The like results for `Cc1c(C(N)=O)oc2ncn(Cc3nnn(C[C@H](O)c4cc5ccccc5s4)n3)c(=O)c12` [Example 2] were, in that order, 10 nM, < 23% and 23 % Qh.
As for `Cc1c(C(N)=O)oc2ncn(Cc3nnn(C[C@H](O)c4ccc(Cl)s4)n3)c(=O)c12` [Example 3], the IC50 on human TRPA1 ion channel came out at 10 nM. Also, the Assay B result (column head not printed in Table 4) in series [1] was < 23%. For the same compound, the “human Hepatocytes” value in series [2] is listed as 5 % Qh.
Regarding `Cc1oc2ncn(Cc3nnn(C[C@H](O)c4cc5ccc(F)cc5s4)n3)c(=O)c2c1C(N)=O` [Example 4], the IC50 on human TRPA1 ion channel came to 10 nM. Moreover, the Assay B result (column head not printed in Table 4) in series [1] was < 23%. Further, the “human Hepatocytes” value in series [2] is 30 % Qh.
In the same order, the values of `Cc1oc2ncn(Cc3nnn(C[C@H](O)c4cc5ccccc5s4)n3)c(=O)c2c1C(N)=O` [Example 5] are 11 nM, < 23% and 23 % Qh.
In the case of `Cc1c(C(N)=O)oc2ncn(Cc3nnn(C[C@H](O)c4cc5cc(Cl)ccc5o4)n3)c(=O)c12` [Example 6], the IC50 on human TRPA1 ion channel was determined as 13 nM. The Assay B result (column head not printed in Table 4) in series [1] is < 23%. For the same compound, the “human Hepatocytes” value in series [2] is reported as 24 % Qh.
Consider `Cc1oc2ncn(Cc3nnn(C[C@H](O)c4ccc(Cl)s4)n3)c(=O)c2c1C(N)=O` [Example 7], for which, at human TRPA1 ion channel, the IC50 was found to be 20 nM. Further, the Assay B result (column head not printed in Table 4) in series [1] was < 23%. The “human Hepatocytes” value in series [2] is reported as 15 % Qh.
As to `Cc1ccc([C@@H](O)Cn2nnc(Cn3cnc4oc(C(N)=O)c(C)c4c3=O)n2)cc1` [Example 8], the IC50 at human TRPA1 ion channel came to 21 nM. Moreover, in series [1], the Assay B result (column head not printed in Table 4) was < 23%. Also, in series [2], the “human Hepatocytes” value is reported as 14 % Qh.
For `Cc1oc2ncn(Cc3nnn(C[C@H](O)c4ccc(Cl)cc4)n3)c(=O)c2c1C(N)=O` [Example 9], the IC50 on human TRPA1 ion channel is 23 nM. Besides, the Assay B result (column head not printed in Table 4) in series [1] was < 23%. In addition, the “human Hepatocytes” value in series [2] stood at 16 % Qh.
The like results for `Cc1c(C(N)=O)oc2ncn(Cc3nnn(C[C@H](O)c4ccc(Cl)cc4)n3)c(=O)c12` [Example 10] were, in that order, 23 nM, < 23% and <4 % Qh.
Regarding `Cc1oc2ncn(Cc3nnn(C[C@H](O)c4cc5ccccc5o4)n3)c(=O)c2c1C(N)=O` [Example 11], the IC50 at human TRPA1 ion channel was 26 nM. The Assay B result (column head not printed in Table 4) in series [1] was < 23%. Besides, in series [2], the “human Hepatocytes” value is listed as 8 % Qh.
On to `Cc1oc2ncn(Cc3nnn(C[C@H](O)c4ccc(Br)cc4)n3)c(=O)c2c1C(N)=O` [Example 12], for which, on human TRPA1 ion channel, the IC50 amounted to 29 nM. Also, the Assay B result (column head not printed in Table 4) in series [1] is < 23%. Moreover, the “human Hepatocytes” value in series [2] came to 16 % Qh.
As for `Cc1oc2ncn(Cc3nnn(C[C@H](O)c4cc5cccc(F)c5o4)n3)c(=O)c2c1C(N)=O` [Example 13], the 50% inhibitory concentration (IC50) on human TRPA1 ion channel turned out to be 49 nM. For the same compound, in series [1], the Assay B result (column head not printed in Table 4) turned out to be 26%. The “human Hepatocytes” value in series [2] is given as 22 % Qh.
As to `Cc1oc2ncn(Cc3nnn(C[C@H](O)c4cc5cc(Cl)ccc5o4)n3)c(=O)c2c1C(N)=O` [Example 14], the IC50 on human TRPA1 ion channel turned out to be 12 nM. In series [1], this compound registered an Assay B result (column head not printed in Table 4) of 42%. For the same compound, the “human Hepatocytes” value in series [2] was determined as 42 % Qh.
Consider `Cc1oc2ncn(Cc3nnn(C[C@H](O)c4cc5cc(F)ccc5o4)n3)c(=O)c2c1C(N)=O` [Example 15], for which the IC50 at human TRPA1 ion channel is 18 nM. Moreover, in series [1], the Assay B result (column head not printed in Table 4) is < 23%. Moreover, in series [2], the “human Hepatocytes” value was 21 % Qh.
